Results as given in patent publication US20250171415A1, “SALT OF SUBSTITUTED AMINO SIX-MEMBERED NITRIC HETEROCYCLIC COMPOUND, CRYSTAL FORM THEREOF, METHOD FOR PREPARING SAME, AND USE THEREOF” (SHANGHAI RUNSHI MEDICAL TECHNOLOGY CO., LTD., priority 2022, published 2025).
Structures can show the parent of a compound that is named as a salt. Blank lines part the entries; values can stand above or below the molecule they belong to.

Columns and labels:
[1] = test system: human lung cancer NCI-H1581 nude mouse subcutaneous xenograft tumor; experiment: Efficacy in human lung cancer NCI-H1581 nude mouse subcutaneous xenograft tumor model; assay type: in vivo
Excerpt: The human lung cancer NCI-H1581 cell strain (preserved by Shanghai Institute of Materia Medica, Chinese Academy of Sciences) was inoculated subcutaneously in the right axilla of nude mice with an inoculation amount of the cells of 5×10^6 cells/mouse. The formed xenograft tumor was directly inoculated for use.
The tumor tissue in the vigorous growth phase was cut into about 1.5 mm^3 and was inoculated subcutaneously in the right axilla of the nude mouse under sterile conditions. The diameter of the subcutaneous xenograft tumor in the nude mouse was measured using a vernier caliper, and the animals were randomly grouped after the tumors grew to an average volume of about 150-160 mm^3. Animals in the Example 3 sample group were orally administered at 10 mg/kg, 5 mg/kg, and 2.5 mg/kg once a day for two consecutive weeks. Animals in the […] (AZD4547) were orally administered at 12.5 mg/kg once a day for two consecutive weeks. Throughout the experiment, the diameter of the xenograft tumor was measured 2 times a week, and the body weight of the mice was measured at the same time. The tumor volume (TV) was calculated as follows: TV=½×a×b^2, wherein a and b represent the length and width, respectively. The relative tumor volume (RTV) was calculated from the measurement results using the following formula: RTV=Vt/V0, wherein V0 is the tumor volume measured at the time of grouping and administration (d0), and Vt is the tumor volume at each measurement. The evaluation index of the anti-tumor activity was the relative tumor proliferation rate T/C (%), which was calculated as follows: T/C (%)=(TRTV/CRTV)×100%, wherein TRTV represents RTV of the treatment group; CRTV represents RTV of the negative control group.

[2] = Solubility experiments of compound of formula (I) and salts thereof; assay type: physicochemical; conditions: 25° C.
[3] = Water sorption and desorption experiments (DVS hygroscopicity); assay type: physicochemical; conditions: 40%-80% relative humidity, 25° C.
[4] = Solid grinding stability: solid grinding, XRPD; assay type: physicochemical; conditions: 20 mg ground in a mortar for 2 min and 5 min
Description: 20 mg of the sample in Example 3 was weighed out, added to a mortar, and ground for 2 min and 5 min, respectively. Then, the sample was characterized by XRPD.

[5] = Solid stability study of dihydrochloride salt crystal form I; assay type: physicochemical
Excerpt: (in a covered sample flask) for 7 days, and for physical stability at room temperature/92.5% RH (uncovered) for 10 days.

[6] = Solid grinding stability: dropwise addition of solvents and grinding; assay type: physicochemical; conditions: ground
[7] = Na2HPO4-citric acid buffer (pH 4.6)
[8] = 40° C./75% RH (uncovered) for 7 days
[9] = 60° C. (covered sample flask) for 7 days

SMILES: COc1cc(CCc2cc(NC(=O)c3ccc(N4C[C@@H](C)N[C@@H](C)C4)cc3)n[nH]2)cc(OC)c1 [AZD4547, reference compound]
T/C (relative tumor proliferation rate) ([1]; 12.5 mg/kg orally once a day for two consecutive weeks): 20.01%

SMILES: CNC(=O)c1cccc2cc(Oc3ccnc(NC(=O)c4ccc(N5C[C@@H](C)N[C@@H](C)C5)cc4)c3)ccc12 [Compound of formula (I)]
Solubility [2, 7]: 45 µg/mL
Solubility ([2]; deionized water): 8 µg/mL

SMILES: CNC(=O)c1cccc2cc(Oc3ccnc(NC(=O)c4ccc(N5C[C@@H](C)N[C@@H](C)C5)cc4)c3)ccc12 [Dihydrochloride salt crystal form I]
Hygroscopicity (%) [3]: 0.65%
Crystal form of the ground sample (XRPD) [4]: not changed
T/C (relative tumor proliferation rate) ([1]; 2.5 mg/kg orally once a day for two consecutive weeks): 49.06%
T/C (relative tumor proliferation rate) ([1]; 5 mg/kg orally once a day for two consecutive weeks): 33.22%
T/C (relative tumor proliferation rate) ([1]; 10 mg/kg orally once a day for two consecutive weeks): 17.17%
Effect on the growth of xenograft tumors ([1]; 10 mg/kg, 5 mg/kg and 2.5 mg/kg orally once a day for two consecutive weeks): significant inhibitory effect
Animal condition and mortality during the experiment ([1]; 10, 5 and 2.5 mg/kg orally once a day for two weeks, nude mice): no mice died
Purity [5, 8]: 99.86
XRPD (crystal form) [5, 8]: Not changed
Purity [5, 9]: 99.85
XRPD (crystal form) [5, 9]: Not changed
Purity ([5]; T0): 99.85
XRPD (crystal form) ([5]; room temperature/92.5% RH (uncovered) for 10 days): Not changed
Solvent grinding result (crystal form) ([6]; Acetone added dropwise): Crystal form I
Solvent grinding result (crystal form) ([6]; Acetonitrile added dropwise): Crystal form I
Solvent grinding result (crystal form) ([6]; Butanone added dropwise): Crystal form I
Solvent grinding result (crystal form) ([6]; Ethanol added dropwise): Crystal form I
Solvent grinding result (crystal form) ([6]; Ethyl acetate added dropwise): Crystal form I
Solvent grinding result (crystal form) ([6]; Isopropanol added dropwise): Crystal form I
Solvent grinding result (crystal form) ([6]; Methanol added dropwise): Crystal form I

Hygroscopicity (%) [3]: 0.81%
Solubility [2, 7]: 30 µg/mL
Solubility ([2]; deionized water): 2000 µg/mL
SMILES: C[C@@H]1COC(Nc2ccc3ncnc(Nc4ccc(OCc5nccs5)c(Cl)c4)c3c2)=N1.O=C(O)/C=C\C(=O)O [Maleate salt]
